The values below come from paper PMC2653597 (Journal of chromatography. A, 2008).

For assay [1], the target named is immobilized human recombinant butyrylcholinesterase (rBChE) (Homo sapiens, UniProt P06276). Put plainly: rBChE-IMER on-line carbamoylation/decarbamoylation kinetics. The assay is classed as biochemical. Particulars: immobilized enzyme, 30 °C, flow rate 1.0 mL/min.
Assay [2] has as its target human recombinant BChE (rBChE) in solution (Homo sapiens, UniProt P06276). The assay can be described thus: in solution stopped time assay for carbamoylation constants. The class given is biochemical. Particulars: enzyme in solution, classical Ellman's assay.

immobilized human recombinant butyrylcholinesterase (rBChE), sequence (P06276 29-602): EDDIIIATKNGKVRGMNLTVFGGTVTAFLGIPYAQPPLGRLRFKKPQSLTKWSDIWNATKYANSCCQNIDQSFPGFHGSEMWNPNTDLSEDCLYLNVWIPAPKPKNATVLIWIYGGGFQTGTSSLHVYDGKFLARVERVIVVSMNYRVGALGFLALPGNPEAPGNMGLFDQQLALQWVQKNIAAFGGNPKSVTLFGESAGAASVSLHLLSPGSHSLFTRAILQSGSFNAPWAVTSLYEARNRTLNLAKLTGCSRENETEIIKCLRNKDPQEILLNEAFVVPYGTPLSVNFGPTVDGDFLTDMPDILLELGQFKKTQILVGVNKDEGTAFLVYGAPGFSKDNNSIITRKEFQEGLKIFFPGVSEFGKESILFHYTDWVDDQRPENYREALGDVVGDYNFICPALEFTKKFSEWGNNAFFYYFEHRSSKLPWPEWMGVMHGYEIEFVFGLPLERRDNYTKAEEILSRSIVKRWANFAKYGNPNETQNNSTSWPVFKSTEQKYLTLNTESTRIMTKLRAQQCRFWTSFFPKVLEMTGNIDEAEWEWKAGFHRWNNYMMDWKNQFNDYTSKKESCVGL
human recombinant BChE (rBChE) in solution, sequence (P06276 29-602): as above

For `CC(C)c1ccc(NC(=O)Oc2ccc3c(c2)[C@]2(C)CCN[C@@H]2N3)cc1` [(-)-Bisnorcymserine], the “carbamoylation constant k2, rBChE-IMER” value in assay [1] came out at 0.081 ± 0.004 min⁻¹. Further, the “carbamoylation constant k2, rBChE in solution” value in assay [2] was found to be 0.573 ± 0.068 min⁻¹.
For `CN1CC[C@@]2(C)c3cc(OC(=O)Nc4ccccc4)ccc3N(C)[C@@H]12` [(-)-Phenserine, 3aS-(-)-phenylcarbamoyleseroline], in that order: 0.486 ± 0.037 min⁻¹ and 3.094 ± 0.536 min⁻¹.
For `CNC(=O)Oc1ccc2c(c1)[C@]1(C)CCN(C)[C@@H]1N2C` [(-)-Physostigmine, (-)-physostigmine, reference compound], in that order: 0.161 ± 0.025 min⁻¹ and 0.479 ± 0.070 min⁻¹.
Turning to `CC(C)Cc1ccc(NC(=O)Oc2ccc3c(c2)[C@]2(C)CCN[C@@H]2N3)cc1` [(-)-Isobutylbisnorcymserine], the “carbamoylation constant k2, rBChE-IMER” value in assay [1] stood at 0.049 ± 0.002 min⁻¹. Moreover, the “carbamoylation constant k2, rBChE in solution” value in assay [2] was found to be 0.634 ± 0.022 min⁻¹.
